Measurements: the supplement of paper PMC11451515

How the values were obtained:
Conditions in all cases: 48 h
NOMO1 [1] = test: AUC of viability dose-response curve (% viability x log10 dose units); higher = less sensitive
Outline: (§1)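 Seeding of medium-adapted leukemia cells was at 500 or 1000 cells/well in 1536-well plates, followed by 48 h at 37°C with library compounds in DMSO at 11 threefold doses from 47 μM to 0.79 nM. CellTiter-Glo One luminescence was normalised per plate to DMSO and cell-free wells and fitted as a four-parameter log-logistic function of log10 dose. Area under the curve was integrated by trapezoidal rule, with curves exceeding full viability scaled and curves failing quality control removed.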

SEM cells [2] = test: as above
Outline: as §1

P12-Ichikawa [3] = test: as above
Outline: as §1

NOMO1 [4] = test: cell viability relative to DMSO control; higher = less cytotoxic
Outline: (§2)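 NOMO1 or SEM (500 cells/well) or P12-Ichikawa (1000 cells/well) leukemia cells were adapted for at least four passages in each medium. They were seeded in 1536-well plates (5 μl) and pin-dosed with library compounds in DMSO over an 11-point threefold series, 47 μM to 0.79 nM. CellTiter-Glo One luminescence was read after 48 h at 37°C. Viability is the per-plate percentage relative to DMSO wells, with cell-free wells as background.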

SEM cells [5] = test: as above
Outline: as §2

P12-Ichikawa [6] = test: as above
Outline: as §2

CC(C(=O)O)c1ccc2c(c1)CC(=O)c1ccccc1S2 (stereo unspecified)
AUC of viability dose-response curve
Conditions | NOMO1 [1] | P12-Ichikawa [3] | SEM cells [2]
HPLM + 10% dialyzed FBS | 389 | 427 | 440
RPMI 5 mM glucose + 10% FBS | 418 | 418 | 461
RPMI 5 mM glucose + 10% dialyzed FBS | 415 | 425 | 458

cell viability [%]
Conditions | NOMO1 [4] | P12-Ichikawa [6] | SEM cells [5]
HPLM + 10% dialyzed FBS, 0.000781 µM | 114 | 104 | 99.9
HPLM + 10% dialyzed FBS, 0.00234 µM | 106 | 108 | 117
HPLM + 10% dialyzed FBS, 0.00702 µM | 113 | 107 | 109
HPLM + 10% dialyzed FBS, 0.0211 µM | 120 | 110 | 115
HPLM + 10% dialyzed FBS, 0.0632 µM | 121 | 118 | 94.3
HPLM + 10% dialyzed FBS, 0.19 µM | 128 | 106 | 112
HPLM + 10% dialyzed FBS, 0.569 µM | 109 | 115 | 95.4
HPLM + 10% dialyzed FBS, 1.71 µM | 87.2 | 101 | 114
HPLM + 10% dialyzed FBS, 5.12 µM | 68.2 | 111 | 126
HPLM + 10% dialyzed FBS, 15.4 µM | 25.7 | 37.5 | 116
HPLM + 10% dialyzed FBS, 46.1 µM | 30.6 | 25.1 | 115
RPMI 5 mM glucose + 10% FBS, 0.000781 µM | 104 | 99.3 | 111
RPMI 5 mM glucose + 10% FBS, 0.00234 µM | 115 | 117 | 109
RPMI 5 mM glucose + 10% FBS, 0.00702 µM | 116 | 101 | 116
RPMI 5 mM glucose + 10% FBS, 0.0211 µM | 112 | 104 | 104
RPMI 5 mM glucose + 10% FBS, 0.0632 µM | 107 | 116 | 103
RPMI 5 mM glucose + 10% FBS, 0.19 µM | 106 | 115 | 105
RPMI 5 mM glucose + 10% FBS, 0.569 µM | 103 | 118 | 117
RPMI 5 mM glucose + 10% FBS, 1.71 µM | 103 | 109 | 121
RPMI 5 mM glucose + 10% FBS, 5.12 µM | 103 | 106 | 99.4
RPMI 5 mM glucose + 10% FBS, 15.4 µM | 22.3 | 24 | 107
RPMI 5 mM glucose + 10% FBS, 46.1 µM | 21.2 | 18.8 | 96.5
RPMI 5 mM glucose + 10% dialyzed FBS, 0.000781 µM | 99.6 | 102 | 122
RPMI 5 mM glucose + 10% dialyzed FBS, 0.00234 µM | 116 | 101 | 115
RPMI 5 mM glucose + 10% dialyzed FBS, 0.00702 µM | 94.2 | 101 | 129
RPMI 5 mM glucose + 10% dialyzed FBS, 0.0211 µM | 105 | 99.2 | 133
RPMI 5 mM glucose + 10% dialyzed FBS, 0.0632 µM | 113 | 99.5 | 124
RPMI 5 mM glucose + 10% dialyzed FBS, 0.19 µM | 105 | 107 | 108
RPMI 5 mM glucose + 10% dialyzed FBS, 0.569 µM | 103 | 104 | 116
RPMI 5 mM glucose + 10% dialyzed FBS, 1.71 µM | 85.3 | 109 | 117
RPMI 5 mM glucose + 10% dialyzed FBS, 5.12 µM | 87.7 | 104 | 110
RPMI 5 mM glucose + 10% dialyzed FBS, 15.4 µM | 23 | 31.7 | 129
RPMI 5 mM glucose + 10% dialyzed FBS, 46.1 µM | 24 | 21.2 | 118

CC(C)OC(=O)[C@H](C)N[P@](=O)(OC[C@H]1O[C@@H](N2\C=C/C(=O)NC2=O)[C@](C)(F)[C@@H]1O)OC3=CC=CC=C3
AUC of viability dose-response curve
Conditions | NOMO1 [1] | P12-Ichikawa [3] | SEM cells [2]
HPLM + 10% dialyzed FBS | 372 | 331 | 387
RPMI 5 mM glucose + 10% FBS | 412 | 391 | 399
RPMI 5 mM glucose + 10% dialyzed FBS | 409 | 385 | 405

cell viability [%]
Conditions | NOMO1 [4] | P12-Ichikawa [6] | SEM cells [5]
HPLM + 10% dialyzed FBS, 0.000781 µM | 115 | 104 | 105
HPLM + 10% dialyzed FBS, 0.00234 µM | 125 | 111 | 111
HPLM + 10% dialyzed FBS, 0.00702 µM | 119 | 117 | 122
HPLM + 10% dialyzed FBS, 0.0211 µM | 122 | 110 | 120
HPLM + 10% dialyzed FBS, 0.0632 µM | 127 | 102 | 99.4
HPLM + 10% dialyzed FBS, 0.19 µM | 131 | 108 | 131
HPLM + 10% dialyzed FBS, 0.569 µM | 87.5 | 94.3 | 106
HPLM + 10% dialyzed FBS, 1.71 µM | 91 | 41.5 | 98.4
HPLM + 10% dialyzed FBS, 5.12 µM | 40.5 | 8.75 | 57.7
HPLM + 10% dialyzed FBS, 15.4 µM | 34.3 | 6.42 | 17.6
HPLM + 10% dialyzed FBS, 46.1 µM | 40.8 | 9.25 | 18.5
RPMI 5 mM glucose + 10% FBS, 0.000781 µM | 101 | 113 | 125
RPMI 5 mM glucose + 10% FBS, 0.00234 µM | 99.8 | 99 | 120
RPMI 5 mM glucose + 10% FBS, 0.00702 µM | 116 | 124 | 130
RPMI 5 mM glucose + 10% FBS, 0.0211 µM | 98.4 | 109 | 122
RPMI 5 mM glucose + 10% FBS, 0.0632 µM | 107 | 112 | 121
RPMI 5 mM glucose + 10% FBS, 0.19 µM | 99.9 | 101 | 125
RPMI 5 mM glucose + 10% FBS, 0.569 µM | 95.7 | 110 | 125
RPMI 5 mM glucose + 10% FBS, 1.71 µM | 98 | 98.1 | 120
RPMI 5 mM glucose + 10% FBS, 5.12 µM | 87.3 | 69.3 | 88.1
RPMI 5 mM glucose + 10% FBS, 15.4 µM | 17.5 | 7.18 | 14.3
RPMI 5 mM glucose + 10% FBS, 46.1 µM | 19 | 5.81 | 9.48
RPMI 5 mM glucose + 10% dialyzed FBS, 0.000781 µM | 101 | 96.2 | 101
RPMI 5 mM glucose + 10% dialyzed FBS, 0.00234 µM | 110 | 105 | 109
RPMI 5 mM glucose + 10% dialyzed FBS, 0.00702 µM | 115 | 106 | 106
RPMI 5 mM glucose + 10% dialyzed FBS, 0.0211 µM | 130 | 103 | 120
RPMI 5 mM glucose + 10% dialyzed FBS, 0.0632 µM | 114 | 102 | 111
RPMI 5 mM glucose + 10% dialyzed FBS, 0.19 µM | 100 | 102 | 115
RPMI 5 mM glucose + 10% dialyzed FBS, 0.569 µM | 99.8 | 101 | 107
RPMI 5 mM glucose + 10% dialyzed FBS, 1.71 µM | 101 | 93.1 | 105
RPMI 5 mM glucose + 10% dialyzed FBS, 5.12 µM | 81.3 | 49.8 | 86.8
RPMI 5 mM glucose + 10% dialyzed FBS, 15.4 µM | 23.7 | 12 | 17.3
RPMI 5 mM glucose + 10% dialyzed FBS, 46.1 µM | 24.1 | 11.3 | 9.7
